Data from US20240182453A1, “NOVEL SUBSTITUTED PYRAZINE-CARBOXAMIDE DERIVATIVES” (Boehringer Ingelheim International GmbH, priority 2022, published 2024).

Target: human metabotropic Glutamate 4 receptor (mGluR4) (Homo sapiens (Human), UniProt Q14833)
Test: Assay A: in vitro testing of mGluR4 potency (glutamate-induced cAMP lowering, HTRF cAMP)
Assay type: cell-based
Settings: HEK293 cells overexpressing human mGluR4; 10 uM L-glutamic acid, 1 uM forskolin; compounds of the present invention
Method in brief: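 HEK293 cells overexpressing human mGluR4 treated 30 min at room temperature with compound plus 10 uM L-glutamate, 1 uM forskolin, 0.5 mM IBMX, 0.1% BSA, 1% DMSO. cAMP read by HTRF (665/615 nm ratio), normalized to glutamate (100%) and no-glutamate (0%) controls as percent of control.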

Sequence of human metabotropic Glutamate 4 receptor (mGluR4) (Q14833 33-912): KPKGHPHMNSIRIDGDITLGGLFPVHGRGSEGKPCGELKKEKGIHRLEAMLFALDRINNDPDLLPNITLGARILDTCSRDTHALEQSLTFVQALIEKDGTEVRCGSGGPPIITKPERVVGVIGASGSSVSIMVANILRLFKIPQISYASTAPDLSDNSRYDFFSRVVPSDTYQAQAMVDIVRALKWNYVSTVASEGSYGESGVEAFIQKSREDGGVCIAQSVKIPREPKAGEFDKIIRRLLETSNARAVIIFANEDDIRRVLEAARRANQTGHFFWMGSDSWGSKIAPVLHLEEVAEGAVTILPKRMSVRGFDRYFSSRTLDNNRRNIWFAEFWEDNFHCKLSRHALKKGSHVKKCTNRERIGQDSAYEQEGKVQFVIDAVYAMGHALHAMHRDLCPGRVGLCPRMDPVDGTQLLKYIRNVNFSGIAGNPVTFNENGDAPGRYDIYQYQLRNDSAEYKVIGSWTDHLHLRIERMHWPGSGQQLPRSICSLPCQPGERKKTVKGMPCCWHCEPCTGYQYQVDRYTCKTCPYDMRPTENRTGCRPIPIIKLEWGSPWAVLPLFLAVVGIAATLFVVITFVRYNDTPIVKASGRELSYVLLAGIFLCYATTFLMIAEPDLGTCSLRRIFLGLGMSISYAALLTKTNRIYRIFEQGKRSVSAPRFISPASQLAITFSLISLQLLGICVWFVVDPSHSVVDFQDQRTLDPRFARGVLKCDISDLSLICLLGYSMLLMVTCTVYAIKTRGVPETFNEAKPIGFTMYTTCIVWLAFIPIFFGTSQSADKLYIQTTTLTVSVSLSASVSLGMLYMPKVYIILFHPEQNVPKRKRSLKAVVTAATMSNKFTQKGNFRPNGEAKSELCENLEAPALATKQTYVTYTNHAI

Row | IC50 | Compound
1 | 10 nM | CO[C@H](C)[C@H](NC(=O)c1cnc(C)cn1)c1nc2cc(OC(F)(F)F)ccc2n1C [Example 43, N-[(1R,2R)-2-methoxy-1-[1-methyl-5-(trifluoromethoxy)-1H-1,3-benzodiazol-2-yl]propyl]-5-methylpyrazine-2-carboxamide]
2 | 19 nM | Cc1cnc(C(=O)N[C@H](c2nc3cc(Cl)ccc3n2C)[C@@H]2CCCO2)cn1 [Example 68, N-[(R)-(5-chloro-1-methyl-1H-1,3-benzodiazol-2-yl)[(2S)-oxolan-2-yl]methyl]-5-methylpyrazine-2-carboxamide]
3 | 2 nM | COCCn1c([C@@H](NC(=O)c2cnc(C(F)F)cn2)[C@@H]2CCCO2)nc2cc(OC(F)(F)F)ccc21 [Example 40, 5-(difluoromethyl)-N-[(R)-[1-(2-methoxyethyl)-5-(trifluoromethoxy)-1H-1,3-benzodiazol-2-yl][(2S)-oxolan-2-yl]methyl]pyrazine-2-carboxamide]
4 | 10 nM | COCCn1c([C@@H](NC(=O)c2cnc(C)cn2)[C@H]2CCCO2)nc2cc(OC(F)(F)F)ccc21 [Example 89, N-[(R)-[1-(2-methoxyethyl)-5-(trifluoromethoxy)-1H-1,3-benzodiazol-2-yl][(2R)-oxolan-2-yl]methyl]-5-methylpyrazine-2-carboxamide]
5 | 11 nM | CCn1c(C(NC(=O)c2cnc(C)cn2)C2CCOC2)nc2cc(C(F)(F)F)ccc21 (single isomer, unassigned) [Example 139, N-{[1-ethyl-5-(trifluoromethyl)-1H-1,3-benzodiazol-2-yl](oxolan-3-yl)methyl}-5-methylpyrazine-2-carboxamide]
6 | 12 nM | CCn1c(C(NC(=O)c2cnc(C)cn2)C2CCOC2)nc2cc(OC(F)(F)F)ccc21 (single isomer, unassigned) [Example 97-1, N-{[1-ethyl-5-(trifluoromethoxy)-1H-1,3-benzodiazol-2-yl](oxolan-3-yl)methyl}-5-methylpyrazine-2-carboxamide]
7 | 39 nM | CCn1c([C@@H](NC(=O)c2cnc(C)cn2)[C@]2(O)CCOC2)nc2cc(C(F)(F)F)ccc21 [Example 156, N-[(R)-[1-ethyl-5-(trifluoromethyl)-1H-1,3-benzodiazol-2-yl][(3R)-3-hydroxyoxolan-3-yl]methyl]-5-methylpyrazine-2-carboxamide]
8 | 14 nM | O=C(N[C@@H](CC1CC1)c1nc2cc(F)c(F)cc2n1C1CC1)c1cnc(C(F)F)cn1 [Example 118, N-[(1S)-2-cyclopropyl-1-(1-cyclopropyl-5,6-difluoro-1H-1,3-benzodiazol-2-yl)ethyl]-5-(difluoromethyl)pyrazine-2-carboxamide]
9 | 14 nM | CCn1c(C(NC(=O)c2cnc(C)cn2)C2CCOC2)nc2ccc(C(F)(F)F)cc21 (single isomer, unassigned) [Example 148, N-{[1-ethyl-6-(trifluoromethyl)-1H-1,3-benzodiazol-2-yl](oxolan-3-yl)methyl}-5-methylpyrazine-2-carboxamide]
10 | 21 nM | COCCn1c(C(NC(=O)c2cnc(C)cn2)C2CCOC2)nc2cc(C(F)(F)F)ccc21 (single isomer, unassigned) [Example 87-1, N-{[1-(2-methoxyethyl)-5-(trifluoromethyl)-1H-1,3-benzodiazol-2-yl](oxolan-3-yl)methyl}-5-methylpyrazine-2-carboxamide]
11 | 62 nM | COCCn1c(C(NC(=O)c2cnc(C)cn2)C2CCCO2)nc2cc(C(F)(F)F)ccc21 (stereo not shown) [Example 71-3, N-{[1-(2-methoxyethyl)-5-(trifluoromethyl)-1H-1,3-benzodiazol-2-yl](oxolan-2-yl)methyl}-5-methylpyrazine-2-carboxamide]
12 | 12 nM | Cc1cnc(C(=O)N[C@H](c2nc3cc(Cl)ccc3n2C)[C@@H]2CC2(F)F)cn1 [Example 76, N-[(S)-(5-chloro-1-methyl-1H-1,3-benzodiazol-2-yl)[(1S)-2,2-difluorocyclopropyl]methyl]-5-methylpyrazine-2-carboxamide]
13 | 12 nM | COCCn1c([C@@H](NC(=O)c2cnc(C(F)F)cn2)[C@H]2CCOC2)nc2cc(OC(F)(F)F)ccc21 [Example 77, 5-(difluoromethyl)-N-[(S)-[1-(2-methoxyethyl)-5-(trifluoromethoxy)-1H-1,3-benzodiazol-2-yl][(3R)-oxolan-3-yl]methyl]pyrazine-2-carboxamide]
14 | 9 nM | Cc1cnc(C(=O)N[C@H](c2nc3cc(Cl)ccc3n2C2CC2)C2CC2)cn1 [Example 101, N-[(S)-(5-chloro-1-cyclopropyl-1H-1,3-benzodiazol-2-yl)(cyclopropyl)methyl]-5-methylpyrazine-2-carboxamide]
15 | 13 nM | Cc1cnc(C(=O)N[C@H](c2nc3cc(C(F)(F)F)ccc3n2C)[C@H]2CCCOC2)cn1 [Example 82, 5-methyl-N-[(S)-[1-methyl-5-(trifluoromethyl)-1H-1,3-benzodiazol-2-yl][(3R)-oxan-3-yl]methyl]pyrazine-2-carboxamide]
16 | 10 nM | COCCn1c([C@@H](NC(=O)c2cnc(C)cn2)[C@@H](C)OC(F)F)nc2cc(F)c(F)cc21 [Example 28, N-[(1R,2R)-1-[5,6-difluoro-1-(2-methoxyethyl)-1H-1,3-benzodiazol-2-yl]-2-(difluoromethoxy)propyl]-5-methylpyrazine-2-carboxamide]

Row | IC50 | Compound
17 | 5 nM | Cc1cnc(C(=O)N[C@H](c2nc3cc(F)ccc3n2CC(F)(F)F)C2CC2)cn1 [Example 27, N-[(S)-cyclopropyl[5-fluoro-1-(2,2,2-trifluoroethyl)-1H-1,3-benzodiazol-2-yl]methyl]-5-methylpyrazine-2-carboxamide]
18 | 2 nM | CO[C@H](C)[C@H](NC(=O)c1cnc(C)cn1)c1nc2cc(OC(F)(F)F)ccc2n1CCOC(C)C [Example 41, N-[(1R,2R)-2-methoxy-1-{1-[2-(propan-2-yloxy)ethyl]-5-(trifluoromethoxy)-1H-1,3-benzodiazol-2-yl}propyl]-5-methylpyrazine-2-carboxamide]
19 | 10 nM | CCn1c([C@@H](NC(=O)c2cnc(C)cn2)C(C)(C)O)nc2cc(OC(F)(F)F)ccc21 [Example 98, N-[(1R)-1-[1-ethyl-5-(trifluoromethoxy)-1H-1,3-benzodiazol-2-yl]-2-hydroxy-2-methylpropyl]-5-methylpyrazine-2-carboxamide]
20 | 6 nM | Cc1cnc(C(=O)N[C@H](c2nc3cc(C(F)(F)F)ccc3n2C)C2CC2)cn1 [Example 31, N-[(S)-cyclopropyl[1-methyl-5-(trifluoromethyl)-1H-1,3-benzodiazol-2-yl]methyl]-5-methylpyrazine-2-carboxamide]
21 | 19 nM | Cc1cnc(C(=O)N[C@H](c2nc3cc(Cl)c(F)cc3n2C)C2CC2)cn1 [Example 100, N-[(S)-(5-chloro-6-fluoro-1-methyl-1H-1,3-benzodiazol-2-yl)(cyclopropyl)methyl]-5-methylpyrazine-2-carboxamide]
22 | 4 nM | Cc1cnc(C(=O)N[C@H](c2nc3cc(F)ccc3n2C(C)C)C2CC2)cn1 [Example 7, N-[(S)-cyclopropyl[5-fluoro-1-(propan-2-yl)-1H-1,3-benzodiazol-2-yl]methyl]-5-methylpyrazine-2-carboxamide]
23 | 24 nM | CCn1c([C@@H](NC(=O)c2cnc(C)cn2)C(C)(C)O)nc2cc(F)c(F)cc21 [Example 50, N-[(1R)-1-(1-ethyl-5,6-difluoro-1H-1,3-benzodiazol-2-yl)-2-hydroxy-2-methylpropyl]-5-methylpyrazine-2-carboxamide]
24 | 16 nM | Cn1c([C@H](CC2CC2)NC(=O)c2cnc(C(F)F)cn2)nc2cc(F)c(F)cc21 [Example 94, N-[(1S)-2-cyclopropyl-1-(5,6-difluoro-1-methyl-1H-1,3-benzodiazol-2-yl)ethyl]-5-(difluoromethyl)pyrazine-2-carboxamide]
25 | 47 nM | CCn1c(C(NC(=O)c2cnc(C)cn2)C2CCOC2)nc2cc(F)c(F)cc21 (single isomer, unassigned) [Example 160, N-[(1-ethyl-5,6-difluoro-1H-1,3-benzodiazol-2-yl)(oxolan-3-yl)methyl]-5-methylpyrazine-2-carboxamide]
26 | 21 nM | COCCn1c([C@@H](NC(=O)c2cnc(C(F)F)cn2)[C@H]2CCOC2)nc2cc(F)ccc21 [Example 48, 5-(difluoromethyl)-N-[(S)-[5-fluoro-1-(2-methoxyethyl)-1H-1,3-benzodiazol-2-yl][(3R)-oxolaN-3-yl]methyl]pyrazine-2-carboxamide]
27 | 6 nM | Cc1cnc(C(=O)N[C@H](c2nc3ccc(Cl)cc3n2CC(F)F)C2CC2)cn1 [Example 157, N-[(S)-[6-chloro-1-(2,2-difluoroethyl)-1H-1,3-benzodiazol-2-yl](cyclopropyl)methyl]-5-methylpyrazine-2-carboxamid]
28 | 3 nM | CCn1c([C@@H](NC(=O)c2cnc(C)cn2)C2CC2)nc2cc(Cl)ccc21 [Example 25, N-[(S)-(5-chloro-1-ethyl-1H-1,3-benzodiazol-2-yl)(cyclopropyl)methyl]-5-methylpyrazine-2-carboxamide]
29 | 1 nM | Cc1cnc(C(=O)N[C@H](c2nc3c(C4CC4)c(Br)ccc3n2C)C2CC2)cn1 [Example 122, N-[(S)-(5-bromo-4-cyclopropyl-1-methyl-1H-1,3-benzodiazol-2-yl)(cyclopropyl)methyl]-5-methylpyrazine-2-carboxamide]
30 | 29 nM | CO[C@H](C)[C@H](NC(=O)c1cnc(C(F)F)cn1)c1nc2cc(OC(F)F)ccc2n1C [Example 80, N-[(1R,2R)-1-[5-(difluoromethoxy)-1-methyl-1H-1,3-benzodiazol-2-yl]-2-methoxypropyl]-5-(difluoromethyl)pyrazine-2-carboxamide]
31 | 18 nM | Cc1cnc(C(=O)N[C@@H](CC2CC2)c2nc3cc(Cl)ccc3n2C2CC2)cn1 [Example 92, N-[(1S)-1-(5-chloro-1-cyclopropyl-1H-1,3-benzodiazol-2-yl)-2-cyclopropylethyl]-5-methylpyrazine-2-carboxamide]
